# Measurements taken from patent US6458764B1, “GRF analogs with increased biological potency” (Theratechnologies Inc., priority 1995, dated 2002).
# Columns and labels:
# Format in all cases: in vivo, pigs (Landrace x Yorkshire)
# [1] = test system: serum IGF-I; assay: Repeated S.C. administrations of GRF analogs, serum IGF-I levels in pigs (Example I, Experiments 1-3; radioimmunoassay); conditions: for serum IGF-I, Day 1 (pretreatment): pretreatment baseline; for increase in IGF-I levels: 20 μg/kg BID SC, P<0.05
# Procedure: The objective of these experiments was to assess the potential of the GRF analogs as anabolic agents.
# Therefore, in order to investigate the anabolic potency of the fatty acid-GRF analogs, their ability to increase IGF-I levels following repeated S.C. administrations in pig was evaluated.
# 26 Landrace x Yorkshire castrated male pigs (40-45 kg BW) were randomly distributed into 4 experimental groups:
# Each animal was injected BID (twice a day) subcutaneously for 4 consecutive days. One blood sample was collected each morning prior to the first injection of the day, and the day after the last injection, for IGF-I measurement.
# 40 Landrace x Yorkshire castrated male pigs (40-45 kg BW) were randomly distributed into 5 experimental groups:
# (§1) Each animal was injected BID (twice a day) subcutaneously for 5 consecutive days. One blood sample was collected each morning prior to the first injection of the day, and the day after the last injection, for IGF-I measurement.
# 48 Landrace x Yorkshire castrated male pigs (40-45 kg BW) were randomly distributed into 6 experimental groups:
# as §1, with “The selected doses were 30 μg/kg for hGRF(1-44)NH2 analogs and 20 μg/kg for hGRF(1-29)NH2 analogs, which give identical doses on a molar basis. Each” for “Each”, “measurements.” for “measurement.”
# IGF-I levels were measured in pig serum by double antibody radioimmunoassay after formic acid-acetone extraction, as previously described (Abribat T. et al., 1993, J. Endocrinol., 39:583-589). The extraction prior to radioimmunoassay is a necessary step to remove endogenous IGF-binding proteins.
# In both experiments, the IGF-I data were analyzed by a two way repeated measure analysis of variance, with day and treatment (GRF analog) as sources of variation. Multiple comparison procedures were there run (Student-Newman Keuls method). A P<0.05 was considered as statistically significant.
# [2] = test system: serum IGF-I; assay: Comparative effects of GRF analogs on IGF-I levels in pigs (Example II, D-IGF-I, FIG. 1); conditions: 20 μg/kg 2×/day S.C., days 1 to 5, n=8 pigs per group
# Procedure: This was a 5-day treatment, twice a day S.C. administration of one single dose of each test article vs saline. This experiment was conducted to compare the efficacy of (Aminohexanoyl)0 hGRF (1-29) NH2, (Hexylformiate)0 hGRF (1-29) NH2, (Hexenoyl trans-2)0 hGRF (1-29) NH2, (Hexenoyl trans-3)0 hGRF (1-29) NH2 and (Muconoyl)0 hGRF (1-29) NH2 to that of(Hexanoyl)0 hGRF (1-29) NH2.
# ADMINISTRATION: Two daily subcutaneous injections.
# (§2) TEST SYSTEM: Landrace x Yorkshire pigs.
# ANIMAL DESCRIPTION: Fifty six (56) growing barrows pigs weighing 35 kg at the time of purchase.
# DESIGN: Fifty six (56) pigs were randomly distributed into 7 experimental groups (n=8 pigs per group). Each group received two daily S.C. administration of the following treatments (volume: 3 ml, S.C. injection).
# Treatments were administered from day 1 to 5. Immediately before the injections, one blood sample were collected from each animal, and additional blood samples were collected on day 6.
# Blood samples were allowed to clot, serum was harvested by centrifugation and submitted to IGF-I assays.
# Results are shown in FIG. 1 as D-IGF-I, which is defined as the increase in IGF-I levels from day 1 (pretreatment levels) to day 6 (after 5 days of GRFs administrations).
# [3] = test system: pig serum GH; assay: Intravenous GH-releasing potency in pigs (Example III); conditions: for effect on GH area under the curve (0 to 300 minutes following injection): I.V., FIG. 3
# Procedure: This experiment was conducted to test the I.V. acute GH-releasing potency of (Hexenoyl trans-3)0 hGRF (1-29) NH2, a GRF analog, in a model physiologically close to human and to compare it to that of hGRF(1-29)NH2.
# (Hexenoyl trans-3)0 hGRF (1-29) NH2 is a combination of the natural hGRF(1-29)NH2 and natural fatty acids. This study was a multidose, single I.V. injection study.
# ADMINISTRATION: intravenous acute injection.
# as §2
# DESIGN: […] pigs (4 spare animals) were cannulated (a catheter surgically implanted in one jugular vein) within on week, before the study. On days 1 and 7, cannulated animals were randomly distributed into 7 groups (n=4 pigs per group).
# Blood samples for pGH assay were collected every 20 min from 1 hour before to 5 hours after GRF injections, with additional samplings 10 and 30 min after injection (n=21 samples). Blood samples are allowed to clot at +4° C. Serum will be harvested by centrifugation, stored at −20° C. and submitted to pGH assays.
# [4] = test system: pig serum GH; assay: Subcutaneous GH-releasing potency in pigs (Example IV); conditions: for effect on GH area under the curve, 0 to 420 minutes following injection: S.C., FIG. 5
# Procedure: This experiment was conducted to test the S.C. acute GH-releasing potency of (Hexenoyl trans-3)0 hGRF (1-29) NH2, a GRF analog, in a model physiologically close to human and to compare it to that of hGRF(1-29)NH2.
# ADMINISTRATION: Subcutaneous acute injection.
# as §2
# DESIGN: Thirty six (36) pigs (4 spare animals) were cannulated (a catheter surgically implanted in one jugular vein) within one week, before the study. On days 1 and 7, cannulated animals were randomly distributed into 8 groups (n=4 pigs per group).
# Blood samples for pGH assay were collected every 20 min from 1 hour before to 7 hours after GRF injections, (n=25 samples). Blood samples were allowed to clot at +4CC. Serum is harvested by centrifugation, stored at −20° C. and submitted to pGH assays.
# [5] = Experiment 1, 20 μg/kg BID SC × 4 days, mean of 6 to 7
# [6] = Experiment 2, 10 μg/kg BID SC × 5 days, mean of 8
# [7] = Experiment 2, 20 μg/kg BID SC × 5 days, mean of 8
# [8] = Experiment 2, 40 μg/kg BID SC × 5 days, mean of 8
# [9] = Experiment 3, 20 μg/kg BID SC × 5 days, mean of 8
# [10] = one intravenous injection, 4 μg/kg, FIG. 2
substance,measurement,setting,value
"(Hexanoyl)0 hGRF (1-29) NH2 (YADAIFTNSYRKVLGQLSARKLLQDIMSR; HELM PEPTIDE1{[CCCCCC(=O)[*:2]].Y.A.D.A.I.F.T.N.S.Y.R.K.V.L.G.Q.L.S.A.R.K.L.L.Q.D.I.M.S.R.[am]}$$$$V2.0; SMILES CCCCCC(=O)N[C@@H](Cc1ccc(O)cc1)C(=O)N[C@@H](C)C(=O)N[C@@H](CC(=O)O)C(=O)N[C@@H](C)C(=O)N[C@H](C(=O)N[C@@H](Cc1ccccc1)C(=O)N[C@H](C(=O)N[C@@H](CC(N)=O)C(=O)N[C@@H](CO)C(=O)N[C@@H](Cc1ccc(O)cc1)C(=O)N[C@@H](CCCNC(=N)N)C(=O)N[C@@H](CCCCN)C(=O)N[C@H](C(=O)N[C@@H](CC(C)C)C(=O)NCC(=O)N[C@@H](CCC(N)=O)C(=O)N[C@@H](CC(C)C)C(=O)N[C@@H](CO)C(=O)N[C@@H](C)C(=O)N[C@@H](CCCNC(=N)N)C(=O)N[C@@H](CCCCN)C(=O)N[C@@H](CC(C)C)C(=O)N[C@@H](CC(C)C)C(=O)N[C@@H](CCC(N)=O)C(=O)N[C@@H](CC(=O)O)C(=O)N[C@H](C(=O)N[C@@H](CCSC)C(=O)N[C@@H](CO)C(=O)N[C@@H](CCCNC(=N)N)C(N)=O)[C@@H](C)CC)C(C)C)[C@@H](C)O)[C@@H](C)CC; UniProt P01286 32-60, looked up, fragment) [[hexanoyl^0] hGRF(1-29)NH2]","serum IGF-I, Day 2",[1]; [5],281 ng/mL
same,"serum IGF-I, Day 3",[1]; [5],299 ng/mL
same,"serum IGF-I, Day 4",[1]; [5],319 ng/mL
same,"serum IGF-I, Day 5",[1]; [5],342 ng/mL
same,"serum IGF-I, Day 1 (pretreatment)",[1]; [5],248 ng/mL
same,increase in IGF-I levels,"[1]; Experiment 1, day 4",29%
same,increase in IGF-I levels,"[1]; Experiment 1, day 5",38%
same,"serum IGF-I, Day 2",[1]; [6],327 ng/mL
same,"serum IGF-I, Day 3",[1]; [6],337 ng/mL
same,"serum IGF-I, Day 4",[1]; [6],338 ng/mL
same,"serum IGF-I, Day 5",[1]; [6],366 ng/mL
same,"serum IGF-I, Day 6",[1]; [6],350 ng/mL
same,"serum IGF-I, Day 1 (pretreatment)",[1]; [6],303 ng/mL
same,"serum IGF-I, Day 2",[1]; [7],341 ng/mL
same,"serum IGF-I, Day 3",[1]; [7],368 ng/mL
same,"serum IGF-I, Day 4",[1]; [7],362 ng/mL
same,"serum IGF-I, Day 5",[1]; [7],362 ng/mL
same,"serum IGF-I, Day 6",[1]; [7],368 ng/mL
same,"serum IGF-I, Day 1 (pretreatment)",[1]; [7],302 ng/mL
same,"serum IGF-I, Day 2",[1]; [8],275 ng/mL
same,"serum IGF-I, Day 3",[1]; [8],319 ng/mL
same,"serum IGF-I, Day 4",[1]; [8],354 ng/mL
same,"serum IGF-I, Day 5",[1]; [8],350 ng/mL
same,"serum IGF-I, Day 6",[1]; [8],374 ng/mL
same,"serum IGF-I, Day 1 (pretreatment)",[1]; [8],252 ng/mL
same,"serum IGF-I, Day 2",[1]; [9],292 ng/mL
same,"serum IGF-I, Day 3",[1]; [9],292 ng/mL
same,"serum IGF-I, Day 4",[1]; [9],315 ng/mL
same,"serum IGF-I, Day 5",[1]; [9],347 ng/mL
same,"serum IGF-I, Day 6",[1]; [9],356 ng/mL
same,"serum IGF-I, Day 1 (pretreatment)",[1]; [9],272 ng/mL
same,increase in IGF-I levels,"[1]; Experiment 3, day 5",28%
same,increase in IGF-I levels,"[1]; Experiment 3, day 6",31%
same,D-IGF-I: increase in IGF-I levels from day 1 (pretreatment) to day 6,[2],significantly increased IGF-I levels
"(Hexenoyl trans-3)0 hGRF (1-29) NH2 (YADAIFTNSYRKVLGQLSARKLLQDIMSR; HELM PEPTIDE1{[CC/C=C/CC(=O)[*:2]].Y.A.D.A.I.F.T.N.S.Y.R.K.V.L.G.Q.L.S.A.R.K.L.L.Q.D.I.M.S.R.[am]}$$$$V2.0; SMILES CC/C=C/CC(=O)N[C@@H](Cc1ccc(O)cc1)C(=O)N[C@@H](C)C(=O)N[C@@H](CC(=O)O)C(=O)N[C@@H](C)C(=O)N[C@H](C(=O)N[C@@H](Cc1ccccc1)C(=O)N[C@H](C(=O)N[C@@H](CC(N)=O)C(=O)N[C@@H](CO)C(=O)N[C@@H](Cc1ccc(O)cc1)C(=O)N[C@@H](CCCNC(=N)N)C(=O)N[C@@H](CCCCN)C(=O)N[C@H](C(=O)N[C@@H](CC(C)C)C(=O)NCC(=O)N[C@@H](CCC(N)=O)C(=O)N[C@@H](CC(C)C)C(=O)N[C@@H](CO)C(=O)N[C@@H](C)C(=O)N[C@@H](CCCNC(=N)N)C(=O)N[C@@H](CCCCN)C(=O)N[C@@H](CC(C)C)C(=O)N[C@@H](CC(C)C)C(=O)N[C@@H](CCC(N)=O)C(=O)N[C@@H](CC(=O)O)C(=O)N[C@H](C(=O)N[C@@H](CCSC)C(=O)N[C@@H](CO)C(=O)N[C@@H](CCCNC(=N)N)C(N)=O)[C@@H](C)CC)C(C)C)[C@@H](C)O)[C@@H](C)CC; UniProt P01286 32-60, looked up, fragment) [hexenoyl trans3-hGRF(1-29)NH2]",effect on GH area under the curve (0 to 300 minutes following injection),[3]; 0.25 μg/kg,significant response
same,effect on GH area under the curve (0 to 300 minutes following injection),[3]; 1 μg/kg,significant response
same,effect on GH area under the curve (0 to 300 minutes following injection),[3]; 4 μg/kg,significant response
same,GH response in the first 60 minutes,[3]; [10],moderate
same,duration of GH release following injection,[3]; [10],approximately 260 minutes
same,D-IGF-I: increase in IGF-I levels from day 1 (pretreatment) to day 6,[2],significantly increased IGF-I levels
same,"effect on GH area under the curve, 0 to 420 minutes following injection",[4]; 5 μg/kg,significant increases of the GH AUC
same,"effect on GH area under the curve, 0 to 420 minutes following injection",[4]; 20 μg/kg,significant increases of the GH AUC
same,duration of GH response following administration,"[4]; one subcutaneous injection, 5 μg/kg, FIG. 4",240 min
